One experiment concerns the target DGKα (Homo sapiens (Human), UniProt P23743). The experiment in a line: biochemical. It is filed as biochemical. The settings on record: liposome (LIPGLO) assay; read-out: DGKα LIPGLO IC50.
A further experiment addresses human DGKζ (Homo sapiens (Human), UniProt Q13574). In words: biochemical. It is filed as biochemical. The settings on record: liposome (LIPGLO) assay; read-out: DGKζ LIPGLO IC50.
Experiment [1] deals with Human venous whole blood (IFN-γ). The experiment in a line: Human whole blood IFN-γ assay. It is filed as cell-based. The settings on record: human whole blood, anti-CD3 plus anti-CD28, 24 hours; read-out: INFg Whole Blood Normalized Agonist EC50. How it is done: Assay 10: Human Whole Blood IFN-γ Assay
Human venous whole blood (22.5 μL per well), obtained from healthy donors, was pre-treated with compounds for one hour at 37° C. in a humidified 95% air/5% CO2 incubator. The blood was stimulated with 2.5 μL anti-human CD3 and anti-CD28 mAb at a final concentration of 1 μg/mL each for 24 hours at 37° C. IFN-γ in the supernatants was measured using AlphLISA kit (Cat #AL217).

Data on eleven compounds can be found in patent US11964973B2 (priority 2019, dated 2024).

A value given as a limit tells only on which side of the number the result lay.

Chain of DGKα (P23743 whole entry, looked up): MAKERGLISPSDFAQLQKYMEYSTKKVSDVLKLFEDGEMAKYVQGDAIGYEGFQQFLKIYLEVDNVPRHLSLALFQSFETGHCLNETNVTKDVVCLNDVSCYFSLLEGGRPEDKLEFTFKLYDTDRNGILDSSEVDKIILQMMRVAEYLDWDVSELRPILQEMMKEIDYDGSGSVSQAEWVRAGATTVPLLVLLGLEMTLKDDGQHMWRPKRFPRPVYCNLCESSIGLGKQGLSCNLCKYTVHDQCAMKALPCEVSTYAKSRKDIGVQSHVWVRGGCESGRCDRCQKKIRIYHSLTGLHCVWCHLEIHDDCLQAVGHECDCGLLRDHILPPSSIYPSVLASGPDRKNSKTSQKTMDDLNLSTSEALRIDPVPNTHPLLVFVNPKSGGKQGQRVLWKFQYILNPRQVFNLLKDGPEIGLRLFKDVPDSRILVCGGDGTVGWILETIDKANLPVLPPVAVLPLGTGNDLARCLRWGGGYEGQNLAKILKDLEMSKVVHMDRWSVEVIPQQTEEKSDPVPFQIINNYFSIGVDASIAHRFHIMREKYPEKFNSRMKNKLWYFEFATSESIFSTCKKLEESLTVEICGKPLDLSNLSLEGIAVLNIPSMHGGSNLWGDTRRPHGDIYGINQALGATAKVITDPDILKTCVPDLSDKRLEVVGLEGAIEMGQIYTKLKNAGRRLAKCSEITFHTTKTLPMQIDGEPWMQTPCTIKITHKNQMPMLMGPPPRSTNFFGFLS
Chain of human DGKζ (Q13574 whole entry, looked up): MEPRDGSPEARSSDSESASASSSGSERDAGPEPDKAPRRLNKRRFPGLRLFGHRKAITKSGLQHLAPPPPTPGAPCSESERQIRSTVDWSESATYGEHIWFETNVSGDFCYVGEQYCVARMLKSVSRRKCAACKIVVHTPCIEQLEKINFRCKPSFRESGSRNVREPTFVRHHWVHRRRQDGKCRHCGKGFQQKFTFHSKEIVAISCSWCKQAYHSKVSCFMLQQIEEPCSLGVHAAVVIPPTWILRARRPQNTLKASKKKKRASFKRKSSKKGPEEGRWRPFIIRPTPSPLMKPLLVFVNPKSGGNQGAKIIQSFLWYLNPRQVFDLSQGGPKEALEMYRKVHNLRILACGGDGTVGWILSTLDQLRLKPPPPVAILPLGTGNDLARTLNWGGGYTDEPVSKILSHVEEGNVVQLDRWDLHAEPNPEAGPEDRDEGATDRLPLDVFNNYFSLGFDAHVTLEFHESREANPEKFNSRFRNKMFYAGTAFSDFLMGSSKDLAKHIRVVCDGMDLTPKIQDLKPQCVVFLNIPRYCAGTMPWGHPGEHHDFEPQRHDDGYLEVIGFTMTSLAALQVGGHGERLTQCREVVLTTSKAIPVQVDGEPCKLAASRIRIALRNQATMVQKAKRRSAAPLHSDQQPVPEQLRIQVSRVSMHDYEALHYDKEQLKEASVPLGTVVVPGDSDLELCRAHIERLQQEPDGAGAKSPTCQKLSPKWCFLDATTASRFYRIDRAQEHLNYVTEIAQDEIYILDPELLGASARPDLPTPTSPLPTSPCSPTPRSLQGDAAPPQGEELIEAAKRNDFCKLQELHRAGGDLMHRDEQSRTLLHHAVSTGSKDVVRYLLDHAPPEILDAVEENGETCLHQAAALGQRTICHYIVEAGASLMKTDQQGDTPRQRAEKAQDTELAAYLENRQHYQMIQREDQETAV

On to `C[C@@H]1CN(c2cc(=O)n(C)c3ccc(C#N)nc23)CC[C@H]1Oc1cccc2c1OCCCO2` [Example 132, 8-((3R,4R)-4-((3,4-dihydro-2H-benzo[b][1,4]dioxepin-6-yl)oxy)-3-methylpiperidin-1-yl)-5-methyl-6-oxo-5,6-dihydro-1,5-naphthyridine-2-carbonitrile], for which the IC50 was 0.011 µM at DGKα and 4.3 µM at human DGKζ.
The like results for `CC[C@@H]1CN(c2cc(=O)n(C)c3ccc(C#N)nc23)CC[C@H]1Oc1cccc(OC(F)(F)F)c1` (single isomer, unassigned) [Example 162] were, in that order, 1.7 µM and 1.1 µM.
The like results for `Cn1c(=O)cc(N2CCC(Oc3ccc(C4CCCCC4)cc3)CC2)c2nc(C#N)ccc21` [Example 63, 8-(4-(4-cyclohexylphenoxy)piperidin-1-yl)-5-methyl-6-oxo-5,6-dihydro-1,5-naphthyridine-2-carbonitrile] were, in that order, 0.74 µM and 38 µM.
The like results for `C[C@@H]1CN(c2cc(=O)n(C)c3ccc(C#N)nc23)CC[C@@H]1Oc1cccc(C2CC2)c1` [Example 181, 8-((3R,4S)-4-(3-cyclopropylphenoxy)-3-methylpiperidin-1-yl)-5-methyl-6-oxo-5,6-dihydro-1,5-naphthyridine-2-carbonitrile] were, in that order, 0.061 µM and 1.4 µM.
Turning to `COc1cc(F)ccc1OC1CCN(c2c(C#N)c(=O)n(C)c3ccc(Cl)nc23)CC1` [Example 36, 6-chloro-4-(4-(4-fluoro-2-methoxyphenoxy)piperidin-1-yl)-1-methyl-2-oxo-1,2-dihydro-1,5-naphthyridine-3-carbonitrile], the figures for the IC50 at DGKα and on human DGKζ were 1.6 µM and 32 µM, respectively.
The like results for `C[C@@H]1CN(c2cc(=O)n(C)c3ccc(C#N)nc23)CC[C@@H]1Oc1cccc(C2CC2)c1` [Example 180, 8-((3R,4S)-4-(3-cyclopropylphenoxy)-3-methylpiperidin-1-yl)-5-methyl-6-oxo-5,6-dihydro-1,5-naphthyridine-2-carbonitrile] were, in that order, 0.045 µM and 1 µM.
With `CC[C@@H]1CN(c2cc(=O)n(C)c3ccc(C#N)nc23)CC[C@H]1Oc1cccc(C(C)C)c1` (racemic) [Example 137, 8-((3R,4R)-3-ethyl-4-(3-isopropylphenoxy)piperidin-1-yl)-5-methyl-6-oxo-5,6-dihydro-1,5-naphthyridine-2-carbonitrile], the IC50 is 0.036 µM at DGKα and 0.92 µM on human DGKζ.
The like results for `Cn1c(=O)cc(N2CCC(Oc3ccc(C(F)(F)F)cn3)CC2)c2nc(C#N)ccc21` [Example 77, 5-methyl-6-oxo-8-(4-((5-(trifluoromethyl)pyridin-2-yl)oxy)piperidin-1-yl)-5,6-dihydro-1,5-naphthyridine-2-carbonitrile] were, in that order, 3 µM and 3 µM.
`C[C@@H]1CN(c2cc(=O)n(C)c3ccc(C#N)nc23)CC[C@H]1Oc1ccc(OC(C)(C)C)cc1` [Example 87, 8-((3R,4R)-4-(4-(tert-butoxy)phenoxy)-3-methylpiperidin-1-yl)-5-methyl-6-oxo-5,6-dihydro-1,5-naphthyridine-2-carbonitrile]: the EC50 in experiment [1] was 2 µM. Also, at DGKα, the concentration for half-maximal inhibition (IC50) stood at 0.05 µM.
Consider `C[C@@H]1CN(c2cc(=O)n(C)c3ccc(C#N)nc23)CC[C@H]1Oc1c(F)cc(F)cc1F` [Example 131, 5-methyl-8-((3R,4R)-3-methyl-4-(2,4,6-trifluorophenoxy)piperidin-1-yl)-6-oxo-5,6-dihydro-1,5-naphthyridine-2-carbonitrile], for which the IC50 at DGKα is 3.1 µM; on human DGKζ it was no less than 250 µM.
On to `C[C@@H]1CN(c2cc(=O)n(C)c3ccc(C#N)nc23)CC[C@@H]1Oc1ccc(OC(C)(C)C)cc1` (single isomer, unassigned) [Example 173], for which, in experiment [1], the 50% effective concentration (EC50) was found to be 1.1 µM. For the same compound, the IC50 at DGKα was 0.74 µM.
